41 molecules from patent US12281114B2, “NK3 modulators and uses thereof” (Kallyope, Inc., priority 2023, dated 2025) can be followed below.

A word on the IC50: it is the concentration that inhibits the measured activity by half.

The assay addresses T1, human NK3 (Homo sapiens, UniProt P29371).
T1 sequence (P29371 1-465): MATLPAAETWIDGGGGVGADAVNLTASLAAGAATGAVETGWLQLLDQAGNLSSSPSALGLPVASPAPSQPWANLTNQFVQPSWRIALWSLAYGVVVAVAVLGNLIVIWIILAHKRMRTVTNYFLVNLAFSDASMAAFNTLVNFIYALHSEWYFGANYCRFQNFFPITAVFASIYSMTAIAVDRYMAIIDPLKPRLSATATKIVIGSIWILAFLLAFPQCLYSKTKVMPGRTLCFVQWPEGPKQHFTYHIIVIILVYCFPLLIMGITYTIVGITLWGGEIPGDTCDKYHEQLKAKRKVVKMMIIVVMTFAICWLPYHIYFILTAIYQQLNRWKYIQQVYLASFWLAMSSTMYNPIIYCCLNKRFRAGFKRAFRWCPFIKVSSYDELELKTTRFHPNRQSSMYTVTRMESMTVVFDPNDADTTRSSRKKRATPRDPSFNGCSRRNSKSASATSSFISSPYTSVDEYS
Description: FLIPR calcium assay in antagonist mode (NKB EC70 challenge). The format is cell-based. The settings on record: stable cell line expressing human recombinant NK3; antagonist mode vs EC70 of NKB agonist. The protocol: Stable Cell Lines: A human recombinant NK3 Tachykinin Receptor stable cell line was purchased from GenScript (Genscript, Cat. #M00201; GenBank Accession Number NM 001059). The cell line was cultured according to manufacturer instructions, using 100 μg/mL Hygromycin B (Invitrogen, Cat. #D2650) for selective pressure. Cells were then collected using 0.05% Trypsin-EDTA (GIBCO, Cat. #25300) and frozen in a freezing media containing 90% FBS (Gibco, Cat. #10099-141) and 10% DMSO (Sigma, Cat. #D2650) at a density of 30×10^6 cells/mL. This bank of assay-ready frozen cells was later used in FLIPR assays to evaluate the potency and efficacy of NK3 antagonist test compounds.
FLIPR Calcium Assay: The FLIPR assay, used to measure changes in intracellular calcium levels, was performed in a 384-well plate format using the FLIPR Calcium 6 assay kit (Molecular Devices, Cat. #R8190). Assay-ready frozen cells expressing human NK3 (Genscript, Cat. #M00201) were thawed, washed, trypsinized, counted using a ViCell, and plated in cell growth media without Hygromycin at a density of […] (40 μL/well).
Calculation of NKB EC70: An EC70 concentration of NKB needed to be determined for competition against test antagonists prior to the compound screen. NKB agonist (Phoenix Pharmaceuticals, Cat. #046-26) was diluted in DMSO at 1800 nM (6-fold the final concentration) and serially diluted to generate a 13-point dose response curve (3-fold serial dilution) using an ECHO. 20 μL of 1× stimulation buffer was added using the BRAVO. 10 μL of DMSO was added while on the FLIPR (described as the first addition), then the RFU signal was measured for 10 minutes. The NKB titration was added to the plate, then the RFU signal was measured for 10 minutes (described as the second addition) on the FLIPR. The EC70 concentration was determined by using a four-parameter fit on GraphPad Prism prior to performing the compound screen.
FLIPR Screen in Antagonist Mode: Test compounds were prepared at 60 μM (6-fold the final concentration) and spotted in 370 nL using the Janus and ECHO. 20 μL of assay buffer was added using the BRAVO. Calcium-sensitive dye was reconstituted in loading buffer (Molecular Devices, Cat. #R8190). Media was removed from the cell plate using a Bluecat Cell Washer, and 40 μL of dye was added to the cell plate using the Apricot. The plate was incubated for 2 hours at 37° C., 5% CO2, then transferred to the FLIPR instrument. 10 μL of compound was added on the FLIPR (described as the first addition), then the RFU signal was measured for 10 minutes. EC70 of NKB agonist was added to the entire plate (described as the second addition), and the RFU signal was measured for 10 minutes on the FLIPR. RFU (relative fluorescence units) signals for first baseline, first peak, second baseline, and second peak were measured using the FLIPR. RFU signal (second peak minus second baseline) for positive (Max, at 10 μM antagonist) and negative (Min, at 0 μM antagonist) controls were used to normalize data and generate values for % Activity. IC50 and efficacy values were determined using a standard curve fitting equation on Dotmatics.
`C[C@]1(O)C[C@H](NC(=O)c2ccn3c(Cl)c(-c4ccccc4-c4cnn(C(F)F)c4Cl)nc3c2)C1` [Compound 818]: the half-inhibitory concentration (IC50) came to 0.99 nM.
Consider `C[C@]1(O)C[C@H](NC(=O)c2ccn3c(Cl)c(-c4ccccc4-c4cn(C(F)F)nc4Cl)nc3c2)C1` [Compound 819], for which the 50% inhibitory concentration (IC50) worked out at 6.12 nM.
As to `C[C@]1(O)C[C@H](NC(=O)c2ccn3c(Cl)c(-c4ccccc4-c4cnn(C(F)(F)F)c4Cl)nc3c2)C1` [Compound 820], the half-maximal inhibitory concentration (IC50) was 0.77 nM.
For `C[C@]1(O)C[C@H](NC(=O)c2ccn3c(Cl)c(-c4ccccc4-c4cn(C(F)(F)F)nc4Cl)nc3c2)C1` [Compound 821] the value was 2.49 nM; for `Cc1nn(C)cc1-c1cc(F)ccc1-c1nc2cc(C(=O)NC34CNC(C3)C4)ccn2c1Cl` [Compound 822], 9.61 nM.
Regarding `Cc1nn(C)cc1-c1cncc(F)c1-c1nc2cc(C(=O)N[C@H]3C[C@@](C)(O)C3)ccn2c1Cl` [Compound 823], the IC50 amounted to 3.25 nM.
For `Cc1nn(C)cc1-c1c(F)cncc1-c1nc2cc(C(=O)N[C@H]3C[C@](C)(O)C3)ccn2c1Cl` [Compound 824] the value was 5.89 nM.
Consider `Cc1nn(C)cc1-c1ccncc1-c1nc2cc(C(=O)N[C@H]3C[C@](C)(O)C3)ccn2c1Cl` [Compound 825], for which the IC50 is 7.72 nM.
Then `C[C@]1(O)C[C@H](NC(=O)c2ccn3c(Cl)c(-c4ccccc4-c4cn(C5CC5)nc4Cl)nc3c2)C1` [Compound 826], with 1.4 nM; and `Cn1cc(-c2cccc(F)c2-c2nc3cc(C(=O)N[C@H]4C[C@](C)(O)C4)ccn3c2Cl)c(F)n1` [Compound 828], with 0.3 nM.
Regarding `CC1(O)CCN(C(=O)c2ccn3c(Cl)c(-c4c(F)cc(F)cc4-c4c[nH]nc4F)nc3c2)CC1` [Compound 829], the IC50 is 8.27 nM.
Consider `O=C(NC1CS(=O)(=O)C1)c1ccn2c(Cl)c(-c3c(F)cc(F)cc3-c3c[nH]nc3F)nc2c1` [Compound 830], for which the concentration for half-maximal inhibition (IC50) turned out to be 6.63 nM.
Then `Cc1c(-c2c(F)cc(F)cc2-c2cn(C)nc2F)nc2cc(C(=O)N[C@H]3C[C@@](C)(O)C3)ccn12` [Compound 831], with 3.66 nM; and `Cn1ncc(-c2cc(F)cc(F)c2-c2nc3cc(C(=O)N[C@H]4C[C@@](C)(O)C4)ccn3c2Cl)c1F` [Compound 832], with 6.91 nM; and `CO[C@H]1C[C@@H](NC(=O)c2ccn3c(F)c(-c4c(F)cc(F)cc4-c4c[nH]nc4Cl)nc3c2)C1` [Compound 833], with 2.68 nM.
Take `O=C(NCC1(O)COC1)c1ccn2c(F)c(-c3c(F)cc(F)cc3-c3c[nH]nc3Cl)nc2c1` [Compound 834]: the IC50 was determined as 6.01 nM.
Regarding `Cn1cc(-c2cccc(F)c2-c2nc3cc(C(=O)N[C@H]4C[C@@](C)(O)C4)ccn3c2Cl)cn1` [Compound 835], the concentration for half-maximal inhibition (IC50) worked out at 6.24 nM.
As for `CC(C)(O)C12CC(NC(=O)c3ccn4c(F)c(-c5c(F)cccc5-c5c[nH]nc5F)nc4c3)(C1)C2` [Compound 836], the IC50 turned out to be 1.1 nM.
For the molecule `Cn1cc(-c2cccc(F)c2-c2nc3cc(C(=O)N[C@@H]4CC[C@@H](CO)OC4)ccn3c2Cl)c(F)n1` [Compound 837], the IC50 amounted to 1.01 nM.
For `Cn1cc(-c2cccc(F)c2-c2nc3cc(C(=O)NC45COC(CO)(C4)C5)ccn3c2Cl)c(F)n1` [Compound 838] the value was 5.17 nM.
For `Cn1cc(-c2cccc(F)c2-c2nc3cc(C(=O)NCC45CC(CO)(CO4)C5)ccn3c2Cl)c(F)n1` [Compound 839] the value was 0.46 nM; for `Cn1cc(-c2cccc(F)c2-c2nc3cc(C(=O)NC4CC5(COC5)C4)ccn3c2Cl)c(F)n1` [Compound 840], 0.58 nM; for `Cn1cc(-c2cccc(F)c2-c2nc3cc(C(=O)N[C@H]4C[C@@](O)(CO)C4)ccn3c2Cl)c(F)n1` [Compound 841], 1.25 nM.
Turning to `Cn1cc(-c2cccc(F)c2-c2nc3cc(C(=O)N4CC5(C4)CC(C)(O)C5)ccn3c2Cl)c(F)n1` [Compound 842], the concentration for half-maximal inhibition (IC50) was 1.38 nM.
On to `Cn1cc(-c2cccc(F)c2-c2nc3cc(C(=O)N[C@H]4C[C@](O)(CO)C4)ccn3c2Cl)c(F)n1` [Compound 843], for which the 50% inhibitory concentration (IC50) was found to be 1.08 nM.
Consider `Cn1cc(-c2cccc(F)c2-c2nc3cc(C(=O)NC[C@H]4C[C@@](C)(O)C4)ccn3c2Cl)c(F)n1` [Compound 844], for which the IC50 amounted to 0.42 nM.
Take `C[C@H]1C[C@H](NC(=O)c2ccn3c(Cl)c(-c4c(F)cc(F)cc4-c4c[nH]nc4F)nc3c2)C1` [Compound 847]: the half-maximal inhibitory concentration (IC50) is 3.57 nM.
In the case of `COC12CC(NC(=O)c3ccn4c(Cl)c(-c5c(F)cc(F)cc5-c5c[nH]nc5F)nc4c3)(C1)C2` [Compound 848], the IC50 stood at 2 nM.
As to `Cn1cc(-c2ccccc2-c2nc3cc(C(=O)NC4CC5(C4)CS(=O)(=O)C5)ccn3c2Cl)c(F)n1` [Compound 849], the IC50 came to 0.94 nM.
For `Cn1cc(-c2cccc(F)c2-c2nc3cc(C(=O)NCC45CC(CO)(CCO4)C5)ccn3c2Cl)c(F)n1` [Compound 850] the value was 0.31 nM; for `O=C(NC1CC(CO)(CO)C1)c1ccn2c(Cl)c(-c3c(F)cc(F)cc3-c3cnn(C4CC4)c3F)nc2c1` [Compound 851], 1.93 nM.
For `O=C(N[C@@H]1C[C@@H](O)[C@@H](O)C1)c1ccn2c(Cl)c(-c3c(F)cccc3-c3cn(C4CC4)nc3F)nc2c1` [Compound 852] the value was 0.97 nM; for `Cn1cc(-c2cccc(F)c2-c2nc3cc(C(=O)NC4CC5(CC(O)C5)C4)ccn3c2Cl)c(F)n1` (centres unmarked) [Compound 853], 0.97 nM.
For `Cn1cc(-c2cccc(F)c2-c2nc3cc(C(=O)NC45CCC(CO)(C4)OC5)ccn3c2Cl)c(F)n1` (centres unmarked) [Compound 854] the value was 1.42 nM; for `Cn1cc(-c2ccccc2-c2nc3cc(C(=O)NC45CCC(O)(CC4)C5)ccn3c2Cl)c(F)n1` [Compound 855], 1.71 nM; for `CC12CC(NC(=O)c3ccn4c(Cl)c(-c5c(F)cccc5-c5cn[nH]c5)nc4c3)(C1)C2` [Compound 856], 11.8 nM.
Take `Cn1cc(-c2ccc(F)c(F)c2-c2nc3cc(C(=O)N[C@H]4C[C@@](C)(O)C4)ccn3c2Cl)c(F)n1` [Compound 916]: the 50% inhibitory concentration (IC50) was found to be 0.84 nM.
Then `Cn1cc(-c2cccc(F)c2-c2nc3cc(C(=O)N[C@H]4CC[C@](C)(O)CC4)ccn3c2Cl)c(F)n1` [Compound 917], with 0.67 nM.
Then `Cn1cc(-c2cccc(F)c2-c2nc3cc(C(=O)N[C@H]4CC[C@](C)(O)CC4)ccn3c2Cl)cn1` [Compound 918, 3-chloro-2-(2-fluoro-6-(1-methyl-1H-pyrazol-4-yl)phenyl)-N-((1r,4r)-4-hydroxy-4-methylcyclohexyl)imidazo[1,2-a]pyridine-7-carboxamide], with 3.48 nM; and `Cn1cc(-c2cccc(F)c2-c2nc3cc(C(=O)N[C@H]4CC[C@@](C)(O)CC4)ccn3c2Cl)c(F)n1` [Compound 919], with 1.27 nM; and `Cn1cc(-c2cccc(F)c2-c2nc3cc(C(=O)N[C@H]4CC5(C[C@@H](O)C5)C4)ccn3c2Cl)c(F)n1` (stereo partly drawn) [Compound 921, trans 3-chloro-2-(2-fluoro-6-(3-fluoro-1-methyl-1H-pyrazol-4-yl)phenyl)-N-(6-hydroxyspiro[3.3]heptan-2-yl)imidazo[1,2-a]pyridine-7-carboxamide], with 0.71 nM.
